Reference: PubChem BioAssay (NCI)
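Step 1: Grow cells in 96-well plates. Step 2: Expose to compound for 48 hours at 5 concentrations. Step 3: Interpolate endpoints linearly; if unreached, use highest concentration. TGI is the concentration that stops growth completely.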

Tests used:
Experiment in all cases: DTP human tumour cell line panel, 48 h
[1] = system: OVCAR-5 ovarian
[2] = system: HT29 colon
[3] = system: RXF 393 renal
[4] = system: OVCAR-8 ovarian
[5] = system: SK-MEL-28 melanoma
[6] = system: ACHN renal
[7] = system: OVCAR-3 ovarian
[8] = system: NCI-H226 lung
[9] = system: NCI-H460 lung
[10] = system: CAKI-1 renal
[11] = system: SK-MEL-2 melanoma
[12] = system: NCI/ADR-RES ovarian

| Structure (SMILES) | TGI [1] [µM] | TGI [2] [µM] | TGI [3] [µM] | TGI [4] [µM] | TGI [5] [µM] | TGI [6] [µM] | TGI [7] [µM] | TGI [8] [µM] | TGI [9] [µM] | TGI [10] [µM] | TGI [11] [µM] | TGI [12] [µM] |
| --- | --- | --- | --- | --- | --- | --- | --- | --- | --- | --- | --- | --- |
| O=S(=O)(c1cc(Cl)ccc1Cl)N1CCN(c2cccc(Cl)c2)CC1 | > 100 | > 100 | > 100 | > 100 | > 100 | > 100 | > 100 | > 100 | > 100 | > 100 |  |  |
| CC(=O)Oc1ccc2cc(-c3ccc(OC(C)=O)c(OC(C)=O)c3)c(=O)oc2c1 | > 100 | > 100 |  | > 100 | > 100 | > 100 | > 100 | > 100 | > 100 |  | > 100 | > 100 |
| C/C(=N/O)c1sc(-c2nc(C)c(/C(C)=N\O)s2)nc1C |  | > 100 | > 100 | > 100 | > 100 | > 100 | > 100 | > 100 |  | > 100 |  |  |
| COc1ccc(/C=C2\CCC(CCN3CCOCC3)C2=O)cc1 (stereo not given) | > 100 | > 100 | > 100 | > 100 | > 100 | > 100 | > 100 | > 100 | > 100 | > 100 | > 100 |  |
| COC12OCCN(C)C1=CC(=O)C1(C)N=NCC12 (stereo not given) |  | > 100 | > 100 | > 100 | > 100 | > 100 | > 100 | > 100 | > 100 | > 100 |  |  |
| CCCCCCCCCCCCC(Br)C(C)=O (stereo not given) | > 100 | > 100 | > 100 | > 100 | > 100 | > 100 | > 100 | > 100 | > 100 |  | > 100 |  |
| O=C(CC1(O)C(=O)Nc2c(Cl)cc(Cl)cc21)c1ccc(F)cc1 (stereo not given) | > 100 | 70.1 | 88.3 | 47.6 | > 100 | > 100 | 68.6 | > 100 | > 100 | > 100 | > 100 |  |
| CC1=N[C@@](C)(C2CC3C=CC2C3=O)COC1=O (stereo not given in full) | > 100 | > 100 | > 100 | > 100 | > 100 | > 100 | > 100 | > 100 | > 100 | > 100 |  |  |
| CC1=C(C(=O)CC(=O)C(=O)Nc2ccc(C)c(C)c2)Sc2ccccc2N1 | > 100 | > 100 | > 100 | > 100 | > 100 | > 100 | > 100 | > 100 | > 100 | > 100 |  |  |
| COc1ccc2c(c1)[n+]([O-])c(/C(C)=N/NC(=O)c1ccccc1O)c(C)[n+]2[O-] | > 100 | > 100 | > 100 | > 100 | > 100 | > 100 | > 100 | > 100 | > 100 | > 100 | > 100 |  |
| O=C(NCCCN(CCCCN(CCCNC(=O)c1cc(S(=O)(=O)O)cc(O)c1O)C(=O)c1cc(S(=O)(=O)O)cc(O)c1O)C(=O)c1cc(S(=O)(=O)O)cc(O)c1O)c1cc(S(=O)(=O)O)cc(O)c1O |  | > 100 |  | > 100 | > 100 | > 100 |  | > 100 | > 100 | > 100 | > 100 | > 100 |
| CC(C)OP(=O)(OC(C)C)C(=NCCN=C(NNc1ccccc1[N+](=O)[O-])P(=O)(OC(C)C)OC(C)C)NNc1ccccc1[N+](=O)[O-] | 72.8 |  |  | > 100 | > 100 | > 100 | > 100 | 67.4 |  | > 100 | 40 |  |
| NC(N)=NS(=O)(=O)c1ccc(NC(=O)c2cccc3c(N)c4ccccc4nc23)cc1 | > 100 |  | > 100 | > 100 | > 100 | > 100 | > 100 | > 100 | > 100 | > 100 | > 100 |  |
| Cc1ccc(C(=O)Oc2ccc(/C=C3\CCC/C(=C\c4ccc(OC(=O)c5ccc(C)cc5)cc4)C3=O)cc2)cc1 | > 100 | > 100 |  | > 100 | > 100 | > 100 | > 100 |  | > 100 | > 100 | > 100 | > 100 |
| Cc1ccc(Sc2ccccc2N)cc1 | > 100 | > 100 | 47.2 | > 100 | > 100 | > 100 | > 100 | 66.4 | > 100 | 67 | > 100 |  |
| O=C(O)CCN(CCCN(CCC(=O)O)CCC(=O)O)CCC(=O)O | > 100 | > 100 |  | > 100 | > 100 | > 100 | > 100 |  | > 100 | > 100 | > 100 |  |
| Cc1nc2c3c(ccc2[nH]c1=O)C(=O)c1ccccc1C3=O | > 100 | > 100 | > 100 | > 100 | > 100 | > 100 | > 100 | > 100 | > 100 | > 100 |  |  |
| CN(/N=C\c1ccnc2ccccc12)c1ccccc1 | 45.6 | 35.9 | 77.3 | > 100 | 82.7 | 95.8 | 44.2 |  | 55.5 | 91.7 | 38.5 |  |
| COc1ccc(/C=C/C(=O)c2sc(-c3cccnc3)nc2C)cc1 | > 100 | > 100 | 90.8 | > 100 | > 100 |  | 88.3 | > 100 | > 100 | > 100 | > 100 |  |
| O=C(Cc1nc2ccc([N+](=O)[O-])cc2[nH]c1=O)C(=O)Nc1ccccc1[N+](=O)[O-] | > 100 | > 100 | > 100 |  | > 100 | > 100 | > 100 | > 100 | > 100 | > 100 | > 100 |  |
| COc1ccc2c(c1OC)C(=O)N/C2=C\c1c(CCN(C)C)cc2c(c1OC)OCO2 | > 100 | > 100 | 84.1 | > 100 | > 100 | > 100 | > 100 | > 100 | > 100 |  |  |  |

| Structure (SMILES) | TGI [1] [µM] | TGI [2] [µM] | TGI [3] [µM] | TGI [4] [µM] | TGI [5] [µM] | TGI [6] [µM] | TGI [7] [µM] | TGI [8] [µM] | TGI [9] [µM] | TGI [10] [µM] | TGI [11] [µM] | TGI [12] [µM] |
| --- | --- | --- | --- | --- | --- | --- | --- | --- | --- | --- | --- | --- |
| CC(C)c1ccc(/C=C/c2cc(C(=O)NNC(=O)NC3CCCCC3)nc(=S)[nH]2)cc1 | > 100 | > 100 | > 100 | > 100 | > 100 | > 100 | > 100 | > 100 | > 100 | > 100 |  |  |
| O=C(O)c1ccc([C@@H]2C(=O)N(O)[C@@H]3C=CC[C@@H]32)cc1 |  | > 100 | > 100 | > 100 | > 100 |  | > 100 | > 100 |  | > 100 | > 100 |  |
| O=C(O)c1c2c(cc3c(=O)cc(-c4ccccc4)oc13)CCCC2 | > 100 | > 100 |  | > 100 | > 100 | > 100 | > 100 |  | > 100 |  | > 100 |  |
| O=[N+]([O-])C=C1c2ccccc2-c2ccccc21 | 31.4 | 37.3 | 31.3 | 34.2 | 31.1 | 30.6 | 28.4 |  | 38.9 | 24.5 | 39.9 |  |
| CC(=O)NNc1nc(C)c(C(=O)/C=C/c2ccc(Cl)c(Cl)c2)s1 | > 100 | > 100 | > 100 | > 100 | > 100 | > 100 | > 100 |  | > 100 | > 100 | > 100 |  |
| CC(C)C(Sc1nc(-c2ccccc2)c(-c2ccccc2)[nH]1)c1n[nH]c(=S)n1-c1ccccc1 (stereo not given) | 95 | 70.3 |  | > 100 | 70.2 | 79.5 | 45.9 | > 100 | > 100 |  | 43 |  |
| CCOC(=O)C1SC(=Nc2ccc(Cl)cc2Cl)N=C1C (stereo not given) | > 100 | > 100 | > 100 | > 100 | > 100 | > 100 | > 100 | > 100 | > 100 | > 100 | > 100 |  |
| CCN(CC)Cc1cc(Nc2ccnc3ccc4nn(C)nc4c23)ccc1O | 35.7 | 20.9 | 21.6 | 50.7 | 27.4 | 68.3 | 68 | 41.7 | 22.5 | > 100 |  |  |
| CC(C)(C)n1c(=O)n2n(c1=O)C1c3cccc4cccc(c34)C2C2c3cccc4cccc(c34)C1n1c(=O)n(C(C)(C)C)c(=O)n12 | > 100 | > 100 |  | > 100 | > 100 | > 100 | 60 | > 100 | > 100 | > 100 | > 100 | > 100 |
| Cc1ccccc1Nc1nc(NNC(=O)Cc2ccccc2)nc(NNC(=O)c2ccncc2)n1 |  | > 10 |  | > 10 | > 10 |  |  |  | > 10 | > 10 |  | > 10 |
| COc1cc(C2c3cc4c(cc3OC(NCCO)C2C)OCO4)cc(OC)c1O (stereo not given) | > 100 | > 100 | > 100 | > 100 | > 100 |  | > 100 | > 100 |  | > 100 | 36.9 |  |
| CC(C)(C)[Si](C)(C)OCC1OC(n2ccc(=O)[nH]c2=O)C(O[Si](C)(C)C(C)(C)C)[C@]12O[C@@H]2CO (stereo not given in full) | 40.6 | 23.8 |  | > 100 | 34.6 | 24.2 | 28.4 | 30.7 | 35.1 | 38.7 | 28.6 | 44 |
| C#CCOCn1cc(C)c(=O)[nH]c1=O | > 100 | > 100 |  | > 100 | > 100 | > 100 |  | > 100 | > 100 | > 100 | > 100 | > 100 |
| Cc1ccc(-c2nnc3s/c(=C\c4ccc(N(C)C)cc4)c(=O)n23)cc1 | > 100 |  | > 100 | > 100 | > 100 | > 100 | > 100 | > 100 | > 100 | > 100 | > 100 |  |
| O=C1C(c2ccccc2)=C(c2ccccc2)C(c2ccc(Sc3ccc(C4=C(c5ccccc5)C(=O)C(c5ccccc5)=C4c4ccccc4)cc3)cc2)=C1c1ccccc1 | > 100 | > 100 | > 100 | > 100 |  |  | > 100 | > 100 | > 100 | > 100 | > 100 |  |
| NC(CCCCNCc1ccccc1)C(=O)O (stereo not given) | > 100 | > 100 |  | > 100 | > 100 | > 100 | > 100 | > 100 | > 100 | > 100 | > 100 |  |
| c1ccc2c(CNCCCCCCCCNCc3cccc4ccccc34)cccc2c1 | 4.14 | 3.35 | 3.13 | 3.5 | 3.32 | 8.36 | 22.5 | 24.5 | 2.8 | 5.01 | 3.03 |  |
| COc1ccccc1NC(=O)CC(=O)N1N=C(c2ccccc2)C(N=Nc2ccc(Cl)cc2)C1=O (stereo not given) | > 100 | > 100 |  | > 100 | > 100 | 47.3 | 74.3 | > 100 | > 100 | > 100 | > 100 |  |
| COc1cc(CNc2cnc3ccc(N)cc3n2)cc(OC)c1OC | > 100 | > 100 | > 100 | > 100 | > 100 | > 100 | > 100 | > 100 | > 100 | > 100 | > 100 |  |
| COC(=O)C(=O)C(/C(=N/N)C(=O)Nc1ccccc1C(N)=O)c1nc2ccc([N+](=O)[O-])cc2[nH]c1=O (stereo not given) | > 100 | > 100 |  | > 100 | > 100 | > 100 | > 100 | > 100 | > 100 | > 100 | > 100 |  |
